In patent US20040033936A1, “Production, stabilisation and use of reduced forms of pharmaceutical compounds” (priority 2000, published 2004):

Experiments:
[1] = Qualitative assessment of reduction of methylene blue in aqueous solution (visual colour change blue to colourless); type: physicochemical; details: for Rate/extent of reduction: neutral, final pH about 6.5; for Rate of reduction: compared to neutral pH
Description: In aqueous solution, the oxidised form of methylene blue has a deep blue coloration, and the reduced (leuco) form is colourless and clear. Reduction of methylene blue can therefore be determined by observation of a colour change from blue to colourless. In the present experiments, the colour change was measured by eye against a white background, but instrumentation, e.g. a visible range spectrophotometer, could also be used.
Individual reducing agents or combinations of reducing agents were added to a solution of methylene blue. […] Reduction of methylene blue was assessed by visual observation of colour change. […] The pH of the final solution of methylene blue and reducing agent(s) was about pH 6.5 in each case (here referred to as “neutral”).
Individual reducing agents or combinations of reducing agents were added, in solution; to a methylene blue solution which had been made either acid or alkaline using acetic acid or sodium hydroxide, respectively. The effect of pH on reduction of methylene blue was determined. Reduction of methylene blue was assessed by visual observation of colour change. The rate of reduction (if any) was compared to the rates of reduction at neutral pH.
In the present context, “acid” refers to a pH adjusted to approximately 3.7 using acetic acid, and “alkali” refers to a pH adjusted to approximately 9.8 using sodium hydroxide. The results are as follows: […]

[2] = Qualitative assessment of reduction of thionine in aqueous solution (visual colour change blue/purple to colourless); type: physicochemical; details: thionine 50 mg/30 ml; reducing agents 250 mg/3 ml
Description: The following reducing agents or combinations of reducing agents (250 mg/3 ml) were added to an aqueous solution of thionine (50 mg/30 mU. Reduction of thionine was determined by visual observation of colour change from blue/purple to colourless. All experiments used 1.67 mg/mI (50 mg/30 ml) thionine solution. Ascorbic acid, L-cysteine or glutathione was used in solution at 83.3 mg/mi (250 mg/3 ml).

[3] = acid, pH approximately 3.7 (acetic acid)
[4] = alkali, pH approximately 9.8 (sodium hydroxide)

Structure (SMILES)	Rate/extent of reduction [1]	Rate of reduction [1, 3]	Rate of reduction [1, 4]	Rate of reduction [2]
Cl.N[C@@H](CS)C(=O)O [L-cysteine, L-cysteine hydrochloride]	no reduction	–	–	–
CC(=O)N[C@@H](CS)C(=O)O [N-acetyl-L-cysteine, N-acetyl L-cysteine]	partial reduction	–	–	–
O=C1O[C@H]([C@@H](O)CO)C(O)=C1O [ascorbic acid]	reduced slowly over 10-15 minutes	no change in rate compared to neutral	no change in rate compared to neutral	reduced in about 10-15 minutes
N[C@@H](CCC(=O)N[C@@H](CS)C(=O)NCC(=O)O)C(=O)O [glutathione]	no reduction over 15 minutes	no observable reduction (as with neutral)	slight reduction over 10-15 minutes	no reduction
CSCC[C@H](N)C(=O)O [methionine]	no reduction	–	–	–
O=S([O-])S(=O)[O-].[Na+].[Na+] [sodium hydrosulphite]	very rapid reduction	–	–	rapid reduction
O=S([O-])S(=O)(=O)[O-].[Na+].[Na+] [sodium metabisulphite]	no reduction	–	–	–
